From US12697337B2, “Solid dispersions” (InventisBio Co., Ltd., priority 2021, dated 2026)

Legend:
[1] = Dynamic moisture sorption analysis (DVS); type: physicochemical
Description: Dynamic Moisture Sorption Analysis (DVS)
Small scale up of Form B: Form B was small scaled up for DVS analysis, solubility and stability studies. 103.02 mg of Compound 1 in Form A was dissolved in 5 mL of MeOH (48V) at RT. After filtration, 10 mL of water was added into the filtrate. Precipitation occurred quickly. The suspension was kept stirring at RT for about 2 hours. Solid samples were collected by filtration, dried under vacuum at 50° C. overnight. 94.16 mg solid was obtained with a yield of 91%. This solid was used for the DVS testing.

[2] = Solid state stability of Form B; type: physicochemical; details: for Purity-7 d (Area %): open, 7 days
Description: Solid State Stability of Form B: About 10 mg of Form B was open placed at 40° C./75% RH and 60° C. for 7 days and at 25° C./92.5% RH for 10 days, respectively. Prepare samples in duplicate (n =2) per condition. The solids were analyzed by XRPD and HPLC (only for 40° C./75% RH and 60° C.).

[3] = Dissolution evaluation in FaSSIF medium; type: physicochemical
Description: Dissolution evaluation in FaSSIF medium: To evaluate in-vitro release performance of SDDs, dissolution in FaSSIF (pH=6.5±0.05) was performed, and the crystalline Compound 1 (Form B) was also tested as control.
Appropriate amount of Compound 1 or SDD (SDD-0 to SDD-8) was weighed into 40-mL glass vials respectively, and then added 10 mL of FaSSIF medium to a target API concentration of 1 mg/mL, followed by hand shake to suspend well. Place the glass bottle on 37° C. hot-stage by stirring magnetically at 200 rpm. At each time point of 10 min, 20 min, 40 min, 60 min and 120 min, 500 μL suspension was pipetted respectively and centrifuged (14,000 rpm, 3 min) to isolate supernatant and dilute with diluent for UPLC analysis. Finally, the pH value of solution (120 min) were measured by pH meter.
The UPLC method used for the dissolution analysis above is UPLC Method 2, which is shown below: […]

[4] = 1-week stability evaluation of SDD; type: physicochemical; details: for Appearance / Purity (%) / XRPD: 1 week; for Initial purity (%): before storage
Description: A brief description of the methods used for PLM, XRPD, Purity and mDSC analysis of the above SDD samples is shown below. • PLM analysis of the SDD samples were conducted using Nikon LV100POL equipped with 5 megapixel CCD, with the physical lens set at 20×. • For XRPD analysis, samples were spread onto the Si-substrate for XRPD test using the parameters as below: Tube: Cu: K-Alpha (λ=1.5418 Å); Generator: Voltage: 40 kV; Current: 40 mA; Scan Scope: 2 or 3 to 40 deg; Time/step(s) 0.06 s; Total time(s) 120 s or 117.36 s. • For mDSC analysis, SDD powders were weighed into Tzero aluminum sample pan from TA Instruments covered by pinhole lid for mDSC test using the parameters as below: Start temperature at 30° C.; Modulate +/−1° C. every 60 seconds; Ramp 2° C./min to 300° C. • The UPLC method used for the assay and purity analysis above is UPLC Method 1, which is shown below:
Appropriate quantity of SDDs and crystalline Compound 1 (Form B) were placed into 40-mL vials respectively.
The samples (closed) were covered by plastic cap tightly and sealed by parafilm and samples (open) were just covered by aluminum foil with pinholes. Then they were stored at 2-8° C., 25° C./60% RH and 40° C./75% RH stability chamber respectively for 1 week. The samples were analyzed by XRPD to check the physical stability, and meanwhile dissolved with diluent for UPLC analysis (UPLC Method 1) to check the chemical stability.

[5] = PCT/CN2020/137276 and PCT/CN2019/126230; cited from earlier work
[6] = pKa measurement of Compound 1; type: physicochemical; details: measured pKa; free base
From the text: Compound 1 has a measured pKa of around 1 and typically exists in a free base form. Unless otherwise explicitly stated to the contrary, Compound 1 herein should be understood as existing in its free base form as opposed to a salt formed with an acid or base. The synthesis and utility of Compound 1 has been described in Applicant's previous applications, such as International Application Nos. PCT/CN2020/091274, filed May 20, 2020, published as WO2020/233592, PCT/CN2020/137276, filed Dec. 17, 2020, and PCT/CN2019/126230, filed Dec. 18, 2019, the contents of each of which are herein incorporated by reference in their entireties. […] PCT/CN2020/137276 and PCT/CN2019/126230 also describe various isolated forms, substantially pure forms, and/or solid forms of Compound 1 and their preparation methods.

[7] = target: KRAS G12C (Homo sapiens, UniProt P01116, G12C); details: as described in previous applications; cited from earlier work
[8] = test system: various cancers; details: as described in previous applications; cited from earlier work
[9] = Table 6, FaSSIF (10 mL) pH 6.5, 37° C., target API 1 mg/mL
[10] = Table 11, FaSSIF (10 mL) pH 6.5

KRAS G12C, sequence (P01116 1-188 isoform P01116-2 G12C): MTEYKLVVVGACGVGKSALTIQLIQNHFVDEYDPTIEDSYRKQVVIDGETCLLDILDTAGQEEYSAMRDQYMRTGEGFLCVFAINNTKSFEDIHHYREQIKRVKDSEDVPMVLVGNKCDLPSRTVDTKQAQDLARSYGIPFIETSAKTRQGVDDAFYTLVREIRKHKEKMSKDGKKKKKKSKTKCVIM

C=CC(=O)N1C[C@H](C)N(c2nc(=O)n(-c3c(C4CC4)ncnc3C3CC3)c3nc(-c4c(N)cccc4F)c(F)cc23)C[C@H]1C [Compound 1 (Form B)]
water absorbed (DVS) ([1]; 0-80% RH, 25° C.): ~ 0.84% | crystal form after DVS testing ([1]; XRPD after DVS): without changing of crystal form | XRPD ([2]; 25° C./92.5% RH, after 10 d): Unchanged | chemical stability ([2]; 40° C./75% RH for 7 days): chemically stable | XRPD ([2]; 40° C./75% RH, after 7 d): Unchanged | Purity-7 d (Area %) ([2]; 40° C./75% RH): 98.97 Area % | purity decrease ([2]; 60° C. for 7 days): 0.16% | XRPD ([2]; 60° C., after 7 d): Unchanged | Purity-7 d (Area %) ([2]; 60° C.): 98.82 Area % | physical stability ([2]; at test conditions (40° C./75% RH, 60° C., 25° C./92.5% RH)): physically stable | Initial Purity (Area %) ([2]; before storage): 98.98 Area % | API concentration in dissolution medium, 10 min [3, 9]: 12.5 µg/mL | API concentration in dissolution medium, 20 min [3, 9]: 13.8 µg/mL | API concentration in dissolution medium, 40 min [3, 9]: 15.0 µg/mL | API concentration in dissolution medium, 60 min [3, 9]: 15.5 µg/mL | API concentration in dissolution medium, 120 min [3, 9]: 15.9 µg/mL | pH ([3]; Table 6, pH value of solution at 120 min of FaSSIF dissolution): 6.42 | API concentration in dissolution medium, 10 min [3, 10]: 10.8 µg/mL | API concentration in dissolution medium, 20 min [3, 10]: 12.5 µg/mL | API concentration in dissolution medium, 40 min [3, 10]: 14.3 µg/mL | API concentration in dissolution medium, 60 min [3, 10]: 14.2 µg/mL | API concentration in dissolution medium, 120 min [3, 10]: 14.9 µg/mL | pH ([3]; Table 11, pH of solution after FaSSIF dissolution): 6.41 | API concentration in dissolution medium, 10 min ([3]; Table 15, FaSSIF (10 mL)): 8.1 µg/mL | API concentration in dissolution medium, 20 min ([3]; Table 15, FaSSIF (10 mL)): 8.4 µg/mL | API concentration in dissolution medium, 40 min ([3]; Table 15, FaSSIF (10 mL)): 9.0 µg/mL | API concentration in dissolution medium, 60 min ([3]; Table 15, FaSSIF (10 mL)): 9.1 µg/mL | API concentration in dissolution medium, 120 min ([3]; Table 15, FaSSIF (10 mL)): 9.7 µg/mL | pH ([3]; Table 15, pH of solution after FaSSIF dissolution): 6.48 | Appearance ([4]; Table 8, 2-8° C., closed): Yellow powder | Purity (%) ([4]; Table 8, 2-8° C., closed): 98.81% | XRPD ([4]; Table 8, 2-8° C., closed): Crystal | Appearance ([4]; Table 8, 25° C./60% RH, open): Yellow powder | Purity (%) ([4]; Table 8, 25° C./60% RH, open): 98.86% | XRPD ([4]; Table 8, 25° C./60% RH, open): Crystal | Appearance ([4]; Table 8, 40° C./75% RH, open): Yellow powder | Purity (%) ([4]; Table 8, 40° C./75% RH, open): 98.79% | XRPD ([4]; Table 8, 40° C./75% RH, open): Crystal | Initial purity (%) ([4]; Table 8): 98.75% | Appearance ([4]; Table 12, 2-8° C., closed): Yellow powder | Purity (%) ([4]; Table 12, 2-8° C., closed): 98.81% | XRPD ([4]; Table 12, 2-8° C., closed): Crystal | Appearance ([4]; Table 12, 25° C./60% RH, open): Yellow powder | Purity (%) ([4]; Table 12, 25° C./60% RH, open): 98.86% | XRPD ([4]; Table 12, 25° C./60% RH, open): Crystal | Appearance ([4]; Table 12, 40° C./75% RH, open): Yellow powder | Purity (%) ([4]; Table 12, 40° C./75% RH, open): 98.79% | XRPD ([4]; Table 12, 40° C./75% RH, open): Crystal | Initial purity (%) ([4]; Table 12): 98.75% | relative stability among crystalline Forms A, B, C, D [5]: more stable crystalline form

C=CC(=O)N1C[C@H](C)N(c2nc(=O)n(-c3c(C4CC4)ncnc3C3CC3)c3nc(-c4c(N)cccc4F)c(F)cc23)C[C@H]1C [Compound 1]
pKa [6]: ~1 | KRAS G12C inhibition [7]: potent KRAS G12C inhibitor | efficacy in in vivo mouse models [8]: effective in treating various cancers
